# Experiments:
# [1] = system: patients with prolactin-producing tumors of the pituitary gland; settings: cited from earlier work
# [2] = system: insulin resistant subject; test: Example I: metyrosine given to an insulin resistant subject, fasting blood values; format: in vivo, human
# Procedure: A insulin resistant subject was given 250 mg metyrosine twice daily.
# [3] = system: experimental brain trauma; settings: in vivo; cited from earlier work
# adult male rats = settings: intracisternal administration, conscious rats, dose related; cited from earlier work
# [4] = 8 weeks of 250 mg twice daily vs initial
# [5] = initial levels, before treatment
compound,measurement,setting,value
"CC(C)C[C@H]1C(=O)N2CCC[C@H]2[C@]2(O)O[C@](NC(=O)[C@@H]3C=C4c5cccc6[nH]c(Br)c(c56)C[C@H]4N(C)C3)(C(C)C)C(=O)N12 [bromocriptine, 2-bromo-α-ergocryptine]",glucose tolerance,[1],improves glucose tolerance
same,insulin values,[1],decreases insulin values toward normal
"C[C@](N)(Cc1ccc(O)cc1)C(=O)O [metyrosine, α-methyltyrosine]",Chol. Tot,[2]; 4 weeks after discontinuation,254 mg/dL
same,FFA,[2]; 4 weeks after discontinuation,747 μE/ml
same,Glucose,[2]; 4 weeks after discontinuation,122 mg/dL
same,HDL,[2]; 4 weeks after discontinuation,37 mg/dL
same,Insulin,[2]; 4 weeks after discontinuation,15 μU/ml
same,LDL,[2]; 4 weeks after discontinuation,189 mg/dL
same,LDL/HDL,[2]; 4 weeks after discontinuation,5.1
same,TG,[2]; 4 weeks after discontinuation,211 mg/dL
same,all values after discontinuation of the treatment regimen,[2]; 4 weeks following discontinuation,returned essentially to their pre-study levels
same,Chol. Tot,[2]; 8 weeks of 250 mg twice daily,209 mg/dL
same,Glucose,[2]; 8 weeks of 250 mg twice daily,110 mg/dL
same,HDL,[2]; 8 weeks of 250 mg twice daily,27 mg/dL
same,Insulin,[2]; 8 weeks of 250 mg twice daily,13 μU/ml
same,LDL,[2]; 8 weeks of 250 mg twice daily,134 mg/dL
same,LDL/HDL,[2]; 8 weeks of 250 mg twice daily,5.0
same,TG,[2]; 8 weeks of 250 mg twice daily,144 mg/dL
same,free fatty acids (FFA),[2]; 8 weeks of 250 mg twice daily,575 μE/L
same,FFA,[2]; 8 weeks of 250 mg twice daily (Table I),575 μE/ml
same,decrease of HDL,[2]; [4],34%
same,decrease of LDL,[2]; [4],24%
same,decrease of fasting blood glucose level (BGL),[2]; [4],10%
same,decrease of free fatty acids (FFA),[2]; [4],23%
same,decrease of insulin,[2]; [4],32%
same,decrease of total cholesterol (TCH),[2]; [4],30%
same,decrease of triglycerides (TG),[2]; [4],31%
same,HDL,[2]; 14 weeks of 250 mg twice daily,39 mg/dL
same,LDL,[2]; 14 weeks of 250 mg twice daily,119 mg/dL
same,LDL/HDL,[2]; 14 weeks of 250 mg twice daily,3.1
same,total reduction of LDL from the beginning of the study,[2]; 14 weeks of 250 mg twice daily,32%
same,free fatty acids (FFA),[2]; initial level,742 μE/L
same,Chol. Tot,[2]; [5],299 mg/dL
same,Glucose,[2]; [5],121 mg/dL
same,HDL,[2]; [5],41 mg/dL
same,Insulin,[2]; [5],19 μU/ml
same,LDL,[2]; [5],176 mg/dL
same,LDL/HDL,[2]; [5],4.3
same,TG,[2]; [5],208 mg/dL
same,FFA,"[2]; initial levels, before treatment (Table I)",742 μE/ml
same,body weight,[2]; week 8,slight decrease
Oc1ccc2c3c1O[C@H]1c4[nH]c5c(c4C[C@@]4(O)[C@@H](C2)N(CC2CC2)CC[C@]314)C[C@@]1(O)[C@H]2Cc3ccc(O)c4c3[C@@]1(CCN2CC1CC1)[C@H]5O4 [nor-binaltorphimine],outcome after experimental brain trauma,[3],improves the outcome
"β-endorphin: synthetic human β-endorphin (YGGFMTSEKSQTPLVTLFKNAIIKNAYKKGE; Beta-endorphin; UniProt P01189 237-267, looked up)",plasma concentrations of catecholamines,adult male rats,"increased plasma concentrations of epinephrine, norepinephine, and dopamine"

# — patent publication US6026817A, “Method of treating the syndrome of coronary heart disease risk factors in humans” (priority 1998, dated 2000)
